Source: patent US20170304288A1, “Formulations of Methionine Aminopeptidase Inhibitors for Treating Infectious Diseases” (Texas Southern University, priority 2013, published 2017)
≈ marks a conversion by molar mass, not a printed value. Read-outs that look alike come from different tables or passages of the source.

What was measured:
EfMetAP1 = target: T1, EfMetAP1 (Enterococcus faecalis, UniProt Q832M5); assay: EfMetAP1 inhibition, coupled methionine-proline aminopeptidase assay; type: biochemical, E. faecalis
T1 sequence (Q832M5 1-254): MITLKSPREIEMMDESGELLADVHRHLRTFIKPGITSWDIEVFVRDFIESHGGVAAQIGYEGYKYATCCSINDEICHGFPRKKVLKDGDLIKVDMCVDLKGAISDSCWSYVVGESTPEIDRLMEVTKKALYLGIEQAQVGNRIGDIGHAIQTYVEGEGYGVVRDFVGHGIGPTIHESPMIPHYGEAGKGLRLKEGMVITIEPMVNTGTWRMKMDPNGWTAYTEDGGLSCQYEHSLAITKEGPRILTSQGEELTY
Protocol: 175,000 compounds were screened against EfMetAP1, using the coupled methionine-proline aminopeptidase spectrophotometric assay (FIG. 7A). The primary screen was performed at final concentrations of 30 μM in 384-well plates using a titertek instrument with liquid handling capabilities coupled to a spectrophotometer. The compounds were dissolved in dimethylsulfoxide (DMSO) and the total reaction volume was 50 μL where each reaction contained 40 mM Hepes buffer (pH 7.5), 100 mM NaCl, 100 μg/mL BSA, 0.1 U/mL ProAP, 1.5 mM CoCl2, 600 μM substrate (Met-Pro-pNA), and 1.38 μM EfMetAP1. The Enzyme was pre-incubated with compounds for 20 min at room temperature followed by addition of substrate. The reaction was incubated at room temperature for 30 min and monitored at 405 nm on a spectrophotometer. […] The background hydrolysis was corrected and the data was fitted against the sigmoidal-dose response (variable slope) equation using GraphPad prism software.

HIV-1 transcription = details: Debebe et. al. 2007; cited from earlier work
HsMetAP1 = HsMetAP1 (Homo sapiens, UniProt P53582); assay: MetAP enzyme inhibition IC50; type: biochemical
Protocol: (§1) The enzyme was pre-incubated with compounds for 20 minutes at room temperature followed by addition of substrate. The reaction was incubated at room temperature for 30 min and monitored at 405 nm on a spectrophotometer. The background hydrolysis was subtracted and the data was fitted to a four-parameter logistic (variable slope) equation using GraphPad Prism software.

HsMetAP2 = HsMetAP2 (Homo sapiens, UniProt P50579); assay: MetAP enzyme inhibition IC50; type: biochemical
Protocol: as §1

M. tuberculosis H37Ra = assay: Activity against dormant (aged non-growing) M. tuberculosis, XTT; type: cell-based, Mycobacterium tuberculosis; details: for MIC: Mycobacterium tuberculosis, H37RA, read-out: MIC dormant M. tuberculosis Strain H37Ra
Protocol: The activity of the compounds in aged non-growing M. tuberculosis was achieved using a perister model at concentrations […] and monitored for three weeks. Briefly, 2 month old M. tuberculosis H37Ra culture was grown in 7H9 medium (Difco) with 10% albumin dextrose catalase (ADC) and 0.05% Tween 80. […] The compound was diluted from a 10 mM (in DMSO) to 10 μM (final concentration) and incubated with the bacilli in […] 7H9 medium (pH 5.5) without ADC in a 96-well plate for three days without shanking under 1% oxygen in a hypoxic chamber. This assay was performed in duplicates with Rifampin (5 mg/mL). Following a 3 day drug exposure, bacilli viability was determined by adding […] of 1 mg/mL of XTT (2,3-bis-(2-methoxy-4-nitro-5-sulfophenyl)-2H-tetrazolium-5-carboxanilide) and incubated at 37° C. for up to 7 days. The 96 well plates were then read at OD 485 nm.

[1] = test system: Wild-type L. major promastigotes; assay: Leishmania major luciferase assay, wild type promastigotes; details: read-out: Wild-type L. major promastigotes EC50
Protocol: Promastigote forms of L. major strain Friedlin clone V1 expressing firefly luciferase were grown in M199 medium supplemented with hemin and 10% fetal bovine serum (FBS) inactivated at 56° C. for 30 minutes and treated with 50 ng/mL streptothricin neosulfate for maintenance of LUC gene.
(§2) Compounds were screened against L. major strain friedlin clone V1 promastigotes expressing firefly luciferase at concentrations ranging from 100 μM-780 nM in a 96 well plate. These experiments were done in triplicates using L. major media and 10^6 parasites per well. The plates were incubated for 24, 48, 72 and 96 hours at 28° C. Amphotericin B (AB) was used as a positive control at 5 μM as a comparison to the leishmanicidal activity of the inhibitors. The inhibitory effects of the compounds were assessed by monitoring parasite survival through luciferase activity. The substrate 5′-fluoroluciferin (ONE-Glo Luciferase Assay System, Promega, Madison, Wis.) was added according to the manufacturer's protocol after each time point. The plates were read using a luminometer (Luminoskan, Thermo Scientific, Rockford, Ill.). Data was analyzed using GraphPad Prism Software (GraphPad Software, Inc., La Jolla, Calif.).

[2] = test system: L. major promastigotes over-expressing LmMetAP1; assay: Leishmania major luciferase assay, promastigotes over-expressing LmMetAP1; type: cell-based; details: read-out: L. major promastigotes over-expressing LmMetAP1 EC50
Protocol: as §2
LmMetAP1 was cloned in the Leishmania expression vector pXG, and parasites were transfected. The parasites overexpressing LmMetAP1 were selected for and cloned.

LmMetAP1 = target: T2, LmMetAP1 (Leishmania major, UniProt Q4QDG7); assay: LmMetAP1 enzyme inhibition (l-Met-pNA); type: biochemical
T2 sequence (Q4QDG7 1-401): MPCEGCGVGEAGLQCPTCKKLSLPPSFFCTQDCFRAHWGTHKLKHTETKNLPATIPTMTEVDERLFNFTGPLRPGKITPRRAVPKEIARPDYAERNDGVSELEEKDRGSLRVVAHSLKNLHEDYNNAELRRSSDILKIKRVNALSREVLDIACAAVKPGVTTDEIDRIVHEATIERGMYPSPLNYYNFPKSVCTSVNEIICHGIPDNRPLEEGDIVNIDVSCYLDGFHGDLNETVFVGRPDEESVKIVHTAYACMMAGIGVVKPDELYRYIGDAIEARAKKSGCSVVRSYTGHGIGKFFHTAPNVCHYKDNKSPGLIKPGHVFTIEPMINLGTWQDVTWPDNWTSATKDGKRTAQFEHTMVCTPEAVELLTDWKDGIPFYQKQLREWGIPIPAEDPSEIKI
Source text: After cloning, overexpressing and purifying the protein to near homogeneity, the chromogenic substrate I-methionine-p-nitroanalide (I-Met-pNA) (Sigma) was used to determine inhibition of the enzyme using various compounds (Mitra et al. 2006).

M. tuberculosis CDC 1551 = assay: Minimum Inhibitory Concentration in replicating M. tuberculosis; type: cell-based, Mycobacterium tuberculosis; details: replicating culture; for MIC: Mycobacterium tuberculosis, CDC1551, read-out: Minimum Inhibitory Concentration Wild-type M. tuberculosis Strain CDC1551
HIV-1 (89.6 strain) = assay: microbe, parasite or virus in culture; type: cell-based; details: for inhibition of HIV-1 p24 antigen production: HIV-1 infected PBMC, ELISA; for inhibitory concentration equivalent to negative control (blank): p24 ELISA; for IC50: Human immunodeficiency virus 1, PBMC, read-out: concentration required for 50% inhibition of HIV1 p24 produced, primary screen, preliminary
E. faecalis OG1RF [3] = assay: Liquid-based C. elegans infection model, survival; type: in vivo, Enterococcus faecalis; details: C. elegans
E. faecalis OG1RF [4] = assay: Assay of E. faecalis inhibition (MIC) in BHI culture; details: Enterococcus faecalis, read-out: Minimum Inhibitory Concentration MIC30 OG1RF
E. faecalis V583 [5] = assay: as above
E. faecalis V583 [6] = assay: Liquid-based C. elegans infection model, survival
M. bovis BCG = type: cell-based, Mycobacterium bovis; details: for CFU from cellular lysates (intracellular M. bovis BCG): 7 d p.i., RIF 5.0 μg/mL, INH 0.1 μg/mL
MtMetAP1a = MtMetAP1a (Mycobacterium tuberculosis, UniProt P9WK21); assay: MetAP enzyme inhibition IC50 (Met-Pro-pNA coupled assay); type: biochemical
MtMetAP1c = MtMetAP1c (Mycobacterium tuberculosis, UniProt P9WK19); assay: as above; type: biochemical
Protocol: A primary high throughput screen was conducted using MAP-C2 microplate processor (Titertek Instruments, Inc., Huntsville, Ala. USA). A library of 175,000 compounds at 30 μM were assayed in a 384 well plates using a dipeptide chromogenic substrate, methionine-proline coupled to p-Nitroaniline (Met-Pro-pNA). Each compound was dissolved in DMSO and stored at −20° C. until use. The total reaction volume was 50 μL, and each reaction contained 40 mM HEPES buffer (pH 7.5), 100 mM NaCl, […], 0.1 U/mL ProAP, 1.5 mM CoCl2, […] (Met-Pro-pNA), and 252 nM MtMetAP1c. The enzyme was pre-incubated with compounds for 20 minutes at room temperature followed by addition of […]. The reaction was then incubated at room temperature for 30 min and monitored at 405 nm on a spectrophotometer.
as §1

C. elegans = assay: Toxicity in non-infected C. elegans; details: 10 μg/mL

Sequence of MtMetAP1a (P9WK21 whole entry): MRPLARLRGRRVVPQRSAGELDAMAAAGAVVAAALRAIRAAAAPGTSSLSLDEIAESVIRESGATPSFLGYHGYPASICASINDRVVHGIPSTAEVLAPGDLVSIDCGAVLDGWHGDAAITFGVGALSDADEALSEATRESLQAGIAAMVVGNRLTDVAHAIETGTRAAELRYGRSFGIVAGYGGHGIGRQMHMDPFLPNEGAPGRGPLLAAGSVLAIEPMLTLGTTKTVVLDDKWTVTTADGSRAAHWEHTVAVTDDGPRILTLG
Sequence of HsMetAP2 (P50579 whole entry): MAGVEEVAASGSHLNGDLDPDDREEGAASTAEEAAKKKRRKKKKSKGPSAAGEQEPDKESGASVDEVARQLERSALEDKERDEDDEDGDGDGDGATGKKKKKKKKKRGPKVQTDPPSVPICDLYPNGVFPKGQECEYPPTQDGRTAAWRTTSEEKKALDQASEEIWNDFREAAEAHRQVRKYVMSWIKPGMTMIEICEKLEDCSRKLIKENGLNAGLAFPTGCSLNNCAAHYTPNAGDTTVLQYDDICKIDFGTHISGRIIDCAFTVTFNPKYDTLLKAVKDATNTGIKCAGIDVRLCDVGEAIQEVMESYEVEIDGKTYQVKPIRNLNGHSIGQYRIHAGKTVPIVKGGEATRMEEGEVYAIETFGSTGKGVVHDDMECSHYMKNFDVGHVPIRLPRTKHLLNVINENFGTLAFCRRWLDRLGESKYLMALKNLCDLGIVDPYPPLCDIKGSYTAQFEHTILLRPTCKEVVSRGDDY
Sequence of MtMetAP1c (P9WK19 whole entry): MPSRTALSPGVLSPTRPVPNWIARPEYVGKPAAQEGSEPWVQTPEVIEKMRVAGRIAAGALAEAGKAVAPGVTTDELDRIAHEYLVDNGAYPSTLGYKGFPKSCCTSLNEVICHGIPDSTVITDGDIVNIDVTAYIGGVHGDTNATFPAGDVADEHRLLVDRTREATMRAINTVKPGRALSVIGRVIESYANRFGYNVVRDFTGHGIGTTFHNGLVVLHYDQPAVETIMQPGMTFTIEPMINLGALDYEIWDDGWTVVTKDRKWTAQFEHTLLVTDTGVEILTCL

Work on CC(=O)Oc1c(Cl)cc(Cl)c2cccnc12 yielded an IC50 (EfMetAP1) of 14.6 µM.
For O=C(N/N=C/c1c(O)ccc2ccccc12)c1ccncc1 [Compound 1, 2-hydroxy-1-naphthylaldehyde isonicotinoyl hydrazone], the IC50 (HIV-1 transcription) is listed as 2 µM, the IC50 (HsMetAP1) is listed as 315 µM and the IC50 (HsMetAP2) is listed as 146 µM. For the same molecule, the “concentration that perturbed the growth of aged non-growing Mtb bacilli” value (M. tuberculosis H37Ra; XTT) was 1.82 µg/mL, the EC50 [1] was 0.64 µM and the EC50 [2] was greater than 10 µM. For the same molecule, the IC50 (LmMetAP1; read-out: MetAP IC50 LmMetAP1) was 10 to 100 µM, the MIC (M. tuberculosis CDC 1551) was less than 10 µg/mL and the “inhibition of HIV-1 p24 antigen production” value (from here on “inhibition”) (HIV-1 (89.6 strain)) was “inhibited the production of HIV-1 p24 antigen in a dose response manner”. The “inhibitory concentration equivalent to negative control (blank)” value (HIV-1 (89.6 strain)) was 274.0 nM.
Work on Oc1ccccc1/C=N/Nc1ncnc2sc3c(c12)CCCC3 [Compound 2, 2-{(E)-[2-(5,6,7,8-tetrahydro[1]benzothieno[2,3-d]pyrimidin-4-yl)hydrazinylidene]methyl}phenol] yielded an EC50 [1] of 0.375 µM, an EC50 [2] of 9 µM and an IC50 (LmMetAP1) greater than 2.5 µM. The MIC (M. tuberculosis CDC 1551) was less than 10 µg/mL, the “inhibition” value (HIV-1 (89.6 strain)) was “inhibited p24 antigen productions in a dose dependent manner” and the “inhibitory concentration equivalent to negative control (blank)” value (HIV-1 (89.6 strain)) was 234.0 nM.
Molecule Cc1nc(-c2ccccn2)nc(N(C)Cc2ccccc2)c1Cl [Compound 3, N-benzyl-5-chloro-N,6-dimethyl-2-(pyridin-2-yl)pyrimidin-4-amine] has an EC50 [1] of 0.243 µM, an EC50 [2] of 5 µM and an IC50 (LmMetAP1) greater than 1 µM. For the same molecule, the MIC (M. tuberculosis CDC 1551) was less than 5 µg/mL and the “inhibition” value (HIV-1 (89.6 strain)) was “inhibited p24 antigen productions in a dose dependent manner”.
In the case of Clc1cc2c(c3ncccc13)OCN(C1CCCCC1)C2 [Compound 8, 6-chloro-3-cyclohexyl-3,4-dihydro-2H-[1,3]oxazino[5,6-h]quinolin], the “MPC (Minimum Protective Concentration) OG1RF” value (E. faecalis OG1RF [3]) is reported as 4e-11 µg/mL, the “MmaxPC (Maximum Protective Concentration) OG1RF” value (E. faecalis OG1RF [3]) is reported as 4e-08 µg/mL and the IC50 (EfMetAP1) is reported as 5.24 µM. The MIC (E. faecalis OG1RF [4]) was 5 to 10 µg/mL (≈ 16.5 to 33 µM), the “Minimum Inhibitory Concentration MIC30 V583” value (E. faecalis V583 [5]) was 0.50 to 1.50 µg/mL and the MIC (E. faecalis V583 [5]; Enterococcus faecalis, V583, read-out: Minimum Inhibitory Concentration MIC30 V583) was 0.5 to 1.5 µg/mL (≈ 1.65 to 4.95 µM). The IC50 (HIV-1 (89.6 strain)) was greater than 3.75 µM and the “MPC (Minimum Protective Concentration) V583” value (E. faecalis V583 [6]) was 4e-11 µg/mL.
For NNC(=O)c1ccncc1 [Isoniazid, reference compound], the “CFU from cellular lysates (intracellular M. bovis BCG)” value (M. bovis BCG) was “dramatically reduced CFU” and the IC50 (HIV-1 (89.6 strain)) was greater than 2 µM.
With CO[C@H]1/C=C/O[C@@]2(C)Oc3c(C)c(O)c4c(O)c(c(/C=N/N5CCN(C)CC5)c(O)c4c3C2=O)NC(=O)/C(C)=C\C=C\[C@H](C)[C@H](O)[C@@H](C)[C@@H](O)[C@@H](C)[C@H](OC(C)=O)[C@@H]1C [RIF, Rifampicin] the “CFU from cellular lysates (intracellular M. bovis BCG)” value (M. bovis BCG) was “dramatically reduced CFU” and the “intracellular BCG by flow cytometry” value (M. bovis BCG; macrophages, 7 days) was “Reduction”.
For O=C(N/N=C/c1c(O)ccc2ccccc12)c1ccncc1 [drawing 22], the IC50 (MtMetAP1a) was 4.9 µM, the IC50 (HsMetAP1) was 315 µM and the IC50 (HsMetAP2) was 146 µM. For the same molecule, the IC50 (MtMetAP1c) was 5.3 µM and the “Minimum Inhibitory Concentration Wild-type M. tuberculosis Strain CDC1551” value (M. tuberculosis CDC 1551) was less than 10.0 µg/mL.
In the case of Oc1ccccc1/C=N/Nc1ncnc2sc3c(c12)CCCC3 [drawing 23], the IC50 (MtMetAP1a) is reported as less than 30 µM, the IC50 (MtMetAP1c) is reported as less than 30 µM and the “Minimum Inhibitory Concentration Wild-type M. tuberculosis Strain CDC1551” value (M. tuberculosis CDC 1551) is reported as less than 10.0 µg/mL.
In the case of Cc1nc(-c2ccccn2)nc(N(C)Cc2ccccc2)c1Cl [drawing 24], the “Minimum Inhibitory Concentration Wild-type M. tuberculosis Strain CDC1551” value (M. tuberculosis CDC 1551) is reported as less than 5.0 µg/mL.
O=C(N/N=C/c1c(O)ccc2ccccc12)c1ccncc1 [drawing 25] gave an MIC (M. tuberculosis H37Ra) of 6.25 µM (≈ 1.82 µg/mL).
Oc1ccccc1/C=N/Nc1ncnc2sc3c(c12)CCCC3 [drawing 26] gave an MIC (M. tuberculosis H37Ra) of 25 µM (≈ 8.11 µg/mL).
For Oc1c(Br)cc(Cl)c2cccnc12 [drawing 36], the IC50 (EfMetAP1) was 12 µM.
For Oc1c(I)cc(Cl)c2cccnc12 [drawing 38], the IC50 (EfMetAP1) was 18.4 µM.
With CN(C)[C@@H]1C(O)=C(C(N)=O)C(=O)[C@@]2(O)C(O)=C3C(=O)c4c(O)cccc4[C@@](C)(O)[C@H]3C[C@@H]12 [tetracycline] the “survival of non-infected animals” value (C. elegans) was “did not decrease survival”.
